From ChEMBL document CHEMBL1201862, “PubChem BioAssay data set” (2004)
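96-well plates; 48 h exposure; 5 concentrations. Endpoints by linear interpolation between flanking doses. Not reached: highest tested concentration assigned. GI50 = concentration required for 50% inhibition of growth.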 The source made the active and inactive calls. No stated cut-off is given here; in the data, active = GI50 up to about 1.1 µM and inactive = higher.

Tests used:
Test in all cases: NCI tumour cell line growth inhibition, 48 h
MDA-N = system: MDA-N
SNB-75 = system: SNB-75
K562 = system: K562
MDA-MB-435 = system: MDA-MB-435
OVCAR-3 = system: OVCAR-3
SF-539 = system: SF-539
A498 = system: A498
LXFL 529 = system: LXFL 529
OVCAR-4 = system: OVCAR-4
UACC-257 = system: UACC-257
SN12C = system: SN12C
OVCAR-5 = system: OVCAR-5
NCI/ADR-RES = system: NCI/ADR-RES
ACHN = system: ACHN
COLO 205 = system: COLO 205
HCC 2998 = system: HCC 2998
UO-31 = system: UO-31
CAKI-1 = system: CAKI-1
NCI-H23 = system: NCI-H23
HCT-15 = system: HCT-15

Row | SMILES | GI50 (MDA-N) | GI50 (SNB-75) | GI50 (K562) | GI50 (MDA-MB-435) | GI50 (OVCAR-3) | GI50 (SF-539) | GI50 (A498) | GI50 (LXFL 529) | GI50 (OVCAR-4) | GI50 (UACC-257) | GI50 (SN12C) | GI50 (OVCAR-5) | GI50 (NCI/ADR-RES) | GI50 (ACHN) | GI50 (COLO 205) | GI50 (HCC 2998) | GI50 (UO-31) | GI50 (CAKI-1) | GI50 (NCI-H23) | GI50 (HCT-15)
1 | CCCCCCCCCCCCCCCCCCN(C)C(COC)COP(=O)([O-])OCC[N+](C)(C)C (stereo unspecified) | 15.6 µM (inactive) | 2.97 µM (inactive) | 11.8 µM (inactive) | 15.6 µM (inactive) | 7.24 µM (inactive) | 7.01 µM (inactive) | 7.38 µM (inactive) | 4.26 µM (inactive) | 3.69 µM (inactive) | 14.6 µM (inactive) | 4.23 µM (inactive) | 2.34 µM (inactive) | 24.5 µM (inactive) | 11.9 µM (inactive) | 1.58 µM (inactive) | 1.66 µM (inactive) | 16 µM (inactive) | 3.69 µM (inactive) | 8.45 µM (inactive) | 
2 | CC(/C=C/C=C\C=C\C=C(/C)C(=O)NC(C)CO)=C\C(C)C(O)/C(C)=C/C(C)CCc1ccccc1 (stereo unspecified) | 12.2 µM (inactive) | 13 µM (inactive) | 0.364 µM (active) | 12.8 µM (inactive) | 1.4 µM (inactive) | 14.1 µM (inactive) | 12.6 µM (inactive) | 3.18 µM (inactive) | 12.4 µM (inactive) | 0.0359 µM (active) | 12.8 µM (inactive) | 10.9 µM (inactive) | 15.6 µM (inactive) | 0.274 µM (active) | 13.7 µM (inactive) | 7.59 µM (inactive) | 5.11 µM (inactive) | 14.2 µM (inactive) | < 0.01 µM (active) | 12.8 µM
3 | COC(=O)C(CCS(=O)(=O)CC(=O)C(=O)Nc1cccc(C(C)=O)c1)C(=O)OC |  | > 100 µM (inactive) | > 61 µM (inactive) |  | > 100 µM (inactive) | > 100 µM (inactive) | > 100 µM (inactive) | > 100 µM (inactive) | > 100 µM (inactive) | > 100 µM (inactive) | > 100 µM (inactive) | > 100 µM (inactive) |  | > 100 µM (inactive) | > 54.5 µM (inactive) | > 100 µM (inactive) | > 100 µM (inactive) | > 100 µM (inactive) | > 100 µM (inactive) | > 72.1 µM
4 | CC(C)N(C(=O)C12C3C4C5C3C1(C(=O)N(C(C)C)C(C)C)C5C42)C(C)C (stereo unspecified) |  | > 100 µM (inactive) | > 39.2 µM (inactive) |  | > 100 µM (inactive) | > 100 µM (inactive) | > 100 µM (inactive) | > 80.4 µM (inactive) | > 100 µM (inactive) | > 100 µM (inactive) | > 100 µM (inactive) | > 100 µM (inactive) |  | > 100 µM (inactive) | > 44.5 µM (inactive) | > 100 µM (inactive) | > 100 µM (inactive) | > 100 µM (inactive) | > 100 µM (inactive) | > 71.8 µM
5 | N#C/C(=C\c1cccc(Cl)c1Cl)c1ccccc1 |  | 19.1 µM (inactive) | > 72.4 µM (inactive) |  | 46.9 µM (inactive) | 35.1 µM (inactive) | 34.6 µM (inactive) | 54 µM (inactive) | 61.5 µM (inactive) | > 100 µM (inactive) | 49.1 µM (inactive) | > 100 µM (inactive) |  | 44.9 µM (inactive) | > 100 µM (inactive) | > 79.3 µM (inactive) | 48.1 µM (inactive) | 40.1 µM (inactive) | 40.8 µM (inactive) | > 57.4 µM
6 | NC1=NN(c2ccccc2)C(=O)C1/C(=N\NC(=O)c1cc2ccccc2cc1O)C(=O)Nc1nc([N+](=O)[O-])cs1 (stereo unspecified) |  | 18.5 µM (inactive) | 9.64 µM (inactive) |  | 30.1 µM (inactive) | 23.9 µM (inactive) | 41.2 µM (inactive) | 34.8 µM (inactive) | 33.7 µM (inactive) | 22.2 µM (inactive) | 37 µM (inactive) | 44.9 µM (inactive) |  | 34.4 µM (inactive) | 23.7 µM (inactive) | 40.2 µM (inactive) | 9.42 µM (inactive) | > 25.6 µM (inactive) | 18.4 µM (inactive) | 24.3 µM
7 | COc1ccccc1NC(=O)CC(=O)n1nc(C)c(/N=N/c2ccccc2Cl)c1C | > 31.6 µM (inactive) | 25.5 µM (inactive) | > 90.2 µM (inactive) | > 100 µM (inactive) | > 100 µM (inactive) | 56.1 µM (inactive) | > 100 µM (inactive) | > 100 µM (inactive) | > 100 µM (inactive) | > 91.4 µM (inactive) | > 100 µM (inactive) | > 100 µM (inactive) | > 100 µM (inactive) | > 100 µM (inactive) | > 100 µM (inactive) | > 100 µM (inactive) | > 100 µM (inactive) | > 100 µM (inactive) | > 37.2 µM (inactive) | > 100 µM
8 | CC(=O)OC1CC2C(C)(C)C(=O)C=C[C@]2(C)C2CCC3(C)C(c4ccoc4)[C@@H](O)[C@H]4O[C@]43[C@]12C (stereo partly specified) |  | 24 µM (inactive) | 16.4 µM (inactive) |  | 17.7 µM (inactive) | 17.9 µM (inactive) | 29.6 µM (inactive) | 18.5 µM (inactive) | 19.7 µM (inactive) | 21.4 µM (inactive) | 18.6 µM (inactive) | 25.9 µM (inactive) |  | 21.8 µM (inactive) | 19.8 µM (inactive) | 16.1 µM (inactive) | 17.8 µM (inactive) | 22 µM (inactive) | 18.1 µM (inactive) | 17.4 µM
9 | N/N=C1\C(=O)N(C2CCCCC2)C(=O)C1C(=O)NC1CCCCC1 (stereo unspecified) |  | 56.4 µM (inactive) | > 100 µM (inactive) |  | 21 µM (inactive) | > 100 µM (inactive) | > 100 µM (inactive) | > 100 µM (inactive) | > 100 µM (inactive) | 87.9 µM (inactive) | 31.6 µM (inactive) | > 100 µM (inactive) |  | > 100 µM (inactive) | > 100 µM (inactive) | > 100 µM (inactive) | > 100 µM (inactive) | > 100 µM (inactive) | > 100 µM (inactive) | > 100 µM
